Experimental data: publication PMC7760626, “Screening of Human CYP1A2 and CYP3A4 Inhibitors from Seaweed In Silico and In Vitro” (Marine Drugs, 2020)
“And” between values parts separate entries of the source, which are not always exact repeats. Equal entries are not always repeated. Where two headings read alike, the source gives them in different places. Each block holds one compound with its values, some of them ahead of it.

Columns and labels:
CYP1A2 [1] = target: T1, CYP1A2 (Homo sapiens, UniProt P05177); experiment: Vivid CYP1A2 blue screening kit inhibition assay; settings: 3.125–200 μM; for effect on CYP1A2 activity (in words): in vitro
T1 sequence (P05177 1-516): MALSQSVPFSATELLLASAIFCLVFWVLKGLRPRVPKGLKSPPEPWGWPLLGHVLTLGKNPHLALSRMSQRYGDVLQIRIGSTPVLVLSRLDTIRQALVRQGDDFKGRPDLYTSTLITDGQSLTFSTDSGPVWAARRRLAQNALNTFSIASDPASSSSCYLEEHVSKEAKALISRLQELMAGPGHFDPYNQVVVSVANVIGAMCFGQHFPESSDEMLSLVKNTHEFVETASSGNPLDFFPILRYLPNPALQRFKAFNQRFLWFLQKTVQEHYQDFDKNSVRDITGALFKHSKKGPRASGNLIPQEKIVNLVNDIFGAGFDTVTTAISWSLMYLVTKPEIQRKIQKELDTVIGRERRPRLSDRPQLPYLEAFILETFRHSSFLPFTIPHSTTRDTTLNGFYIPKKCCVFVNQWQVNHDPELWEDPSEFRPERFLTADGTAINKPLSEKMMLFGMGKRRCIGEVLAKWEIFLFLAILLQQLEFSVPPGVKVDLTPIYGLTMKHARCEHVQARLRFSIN
Method: (§1) Human CYP1A2 and CYP3A4 activities were determined using the Vivid™ CYP1A2 blue screening kit and Vivid™ CYP3A4 red screening kit according to the manufacturer’s instructions. For the CYP1A2 and CYP3A4 inhibition assay, different concentrations (3.125–200 μM) of test compounds or inhibitors were mixed with a master pre-mix comprising of CYP450 BACULOSOMES® reagent and regeneration system which contained glucose-6-phosphate and glucose-6-phosphate dehydrogenase. The mixture was incubated at room temperature for 10 min. Following incubation, each CYP enzyme-specific substrate (Vivid EOMCC for CYP1A2 and Vivid BOMR for CYP3A4) and NADP^+ were added to start the reaction. The plate was immediately transferred into the fluorescent plate reader and read in 1 min intervals for 60 min at Ex 415 nm/Em 460 nm (CYP1A2) and Ex 550 nm/Em 590 nm (CYP3A4), respectively. […] The plots were made with Graph-Pad Prism software (Graph-Pad, San Diego, CA, USA).

human recombinant CYP3A4 = human recombinant CYP3A4 (Homo sapiens, UniProt P08684); experiment: Vivid CYP3A4 red screening kit inhibition assay
Method: as §1

CYP1A1 [2] = settings: read-out: IC50 CYP1A1 enzyme activity; cited from earlier work
CYP1A2 [3] = settings: read-out: IC50 CYP1A2 enzyme activity; cited from earlier work
CYP3A4 [4] = settings: read-out: IC50 CYP3A4 enzyme activity; cited from earlier work
CYP1A1 [5] = test system: CYP1A1; parameters: method as in PMID 31655123; settings: cited from earlier work
CYP1A2 [6] = settings: cited from earlier work
CYP2E1 = settings: cited from earlier work
CYP2D6 = settings: cited from earlier work
CYP2C19 = settings: cited from earlier work
CYP3A4 [7] = settings: cited from earlier work
[8] = CYP1A2 In Vitro IC50, CYP1A2 BACULOSOMES, substrate Vivid EOMCC, n.i. = no inhibition

Sequence of human recombinant CYP3A4 (P08684 whole entry): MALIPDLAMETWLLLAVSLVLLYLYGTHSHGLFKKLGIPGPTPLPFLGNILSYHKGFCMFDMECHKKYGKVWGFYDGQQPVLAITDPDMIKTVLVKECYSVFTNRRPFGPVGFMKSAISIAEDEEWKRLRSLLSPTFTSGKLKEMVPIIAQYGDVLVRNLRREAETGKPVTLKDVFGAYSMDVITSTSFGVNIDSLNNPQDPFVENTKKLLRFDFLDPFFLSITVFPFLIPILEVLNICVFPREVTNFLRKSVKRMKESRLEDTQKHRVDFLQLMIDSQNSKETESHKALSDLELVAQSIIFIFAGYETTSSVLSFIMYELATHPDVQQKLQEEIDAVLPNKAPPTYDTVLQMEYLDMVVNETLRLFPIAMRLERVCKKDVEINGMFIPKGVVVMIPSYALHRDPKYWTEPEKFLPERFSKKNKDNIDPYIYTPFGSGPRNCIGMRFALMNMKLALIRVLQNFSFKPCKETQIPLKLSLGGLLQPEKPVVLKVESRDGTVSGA

IC50 (CYP1A2 [1]; [8]): 30.3 µM
IC50 at 60 min (CYP1A2 [1]; human, recombinant human CYP1A2 (CYP450 BACULOSOMES reagent), probe Vivid EOMCC, CYP1A2 In Vitro IC50, CYP1A2 BACULOSOMES, substrate Vivid EOMCC, n.i. = no inhibition): 30.2 µM
IC50 (human recombinant CYP3A4; CYP3A4 In Vitro IC50, CYP3A4 BACULOSOMES, substrate Vivid BOMR, 3.125–200 μM, n.i. = no inhibition): 24.4 µM
Structure (SMILES): CC(=O)O[C@H]1CC(C)(C)C(=C=C/C(C)=C/C=C/C(C)=C/C=C/C=C(C)/C=C/C=C(\C)C(=O)C[C@@]23O[C@]2(C)C[C@@H](O)CC3(C)C)[C@](C)(O)C1 [Fucoxanthin, fucoxanthin]
IC50 (CYP1A1 [2]): 12.5 µM
IC50 (CYP1A2 [3]): 49 µM
IC50 (CYP3A4 [4]): 11 µM

Structure (SMILES): COc1ccc([C@@H]2CC(=O)c3c(O)cc(O[C@@H]4O[C@H](CO[C@@H]5O[C@@H](C)[C@H](O)[C@@H](O)[C@H]5O)[C@@H](O)[C@H](O)[C@H]4O)cc3O2)cc1O [Hesperidin, hesperidin]
effect on CYP1A2 activity (in words) (CYP1A2 [1]): did not show any significant effect
effect on CYP1A2 activity (in words) (CYP1A2 [1]; listed as HSP): no significant inhibitory effect
effect on CYP3A4 activity (in words) (human recombinant CYP3A4; in vitro, at high concentrations): slightly inhibited

IC50 (CYP1A2 [1]; [8]): 41.8 µM and 41.9 µM
Structure (SMILES): O=c1c(O)c(-c2ccc(O)cc2O)oc2cc(O)cc(O)c12 [Morin, morin hydrate]
IC50 (CYP1A1 [5]): 126 µM

Structure (SMILES): O=c1c(O)c(-c2ccc(O)c(O)c2)oc2cc(O)cc(O)c12 [Quercetin, quercetin]
effect on CYP1A2 (in words) (CYP1A2 [6]): did not show any significant effect
effect on CYP2E1 (in words) (CYP2E1): did not show any significant effect
inhibitory effect against CYP2D6 (in words) (CYP2D6): strong inhibitory effect
inhibitory effect against CYP2C19 (in words) (CYP2C19): moderate effect
inhibitory effect against CYP3A4 (in words) (CYP3A4 [7]): moderate effect
